The subject of assay [1] is proliferating cell nuclear antigen (PCNA). The experiment in a line: PCNA expression in skin. The class given is in vivo, mouse. The note with it: sham-irradiated skin and UV-exposed skin. The protocol: It has been discovered that Erbb2 modulates the expression of genes important in both proliferation and apoptosis following UV exposure in vivo (Example 9). Accordingly, the influence of Erbb2 on both apoptosis and cell proliferation was assessed in order to determine the mechanisms of Erbb2's effect on hyperplasia in the skin after UV irradiation. Erbb2 suppresses UV-induced apoptosis in vitro, although the effect was slight (32). The percentage of TUNEL-positive basal cells was increased at 24 h after UV in vehicle-treated skin, consistent with previous observations in this animal model (13). […] Erbb2 reportedly suppresses keratinocyte differentiation (11), a process leading to keratinocyte death that is mechanistically and morphologically distinct from apoptosis. […] Mean proliferating cell nuclear antigen (PCNA) expression, a marker of cell proliferation, was less in Erbb2 inhibitor treated sham-irradiated skin and in UV-exposed skin when compared to the vehicle-treated controls.

Another assay concerns keratin 5, loricrin. Nature of the assay: Differentiation markers in UV-exposed skin. The class given is in vivo, mouse. Particulars: inhibition prior to UV irradiation.
Another assay deals with primary keratinocytes. The experiment in a line: Cell cycle distribution (DNA content, flow cytometry) in cultured keratinocytes. In kind it is cell-based, mouse. From the text:
Cell culture. […] Keratinocytes were transfected with Erbb2-targeted siRNA (32), Stealth RNAi Negative Control LO GC (Invitrogen, Carlsbad, Calif.), Cy3-conjugated Label IT RNAi Delivery Control (Mirus, Madison, Wis.) or sham transfection with TransIT-siQUEST Transfection Reagent (Mirus, Madison, Wis.). Plasmids with Cdc25a (Hassepass et al. 2003a) and EGFP (enhanced green fluorescent protein) cDNA were cotransfected with Lipofectamine Transfection Reagent (Invitrogen, Carlsbad, Calif.). Transfection efficiency was quantified by determining the proportion of the cells that incorporated the fluorescent Cy3-conjugated siRNA or GFP one day post-transfection. Keratinocytes homozygous for the Erbb2 loxP mutation were infected with Cre recombinase-expressing or empty adenoviral vectors in polybrene (Sigma).
Cell cycle. For in vivo analysis of cell cycle distribution, sections from paraffin embedded blocks were dewaxed with xylene, rehydrated and digested in PBS containing 0.5% pepsin (Sigma, St. Louis, Mo.). The nuclei were isolated by filtration and suspended in Vindelov's solution reagent (3.5 mM tris base, pH 7.6, 10 mM NaCl, […] Ribonuclease A, 75 μg/ml PI, 1.01l/ml IPEGAL) (56). For in vitro analysis, keratinocytes were resuspended, fixed in 70% ethanol, resuspended in Vindelov's solution (3.5 mM Tris base, pH 7.6, 10 mM NaCl, 10 μg/ml Ribonuclease A, 75 μg/ml propidium iodide, 1.01l/ml IPEGAL), and analyzed on a FACSCalibur flow cytometer (Becton Dickinson, Franklin Lakes, N.J.). Cell cycle distributions were determined using ModFit LT 3.1 software (Verity Software House, Topsham, Me.). […]
To further investigate Erbb2's effects on cell cycle progression after UV irradiation, DNA synthesis was examined after UV irradiation of cultured primary keratinocytes lacking Erbb2 activity. […] An even more striking effect was detected after UV irradiation. […] The influence of Erbb2 activation on S-phase progression was determined using both pharmacologic and genetic models to interfere with Erbb2 signaling. […]

The subject of the next assay is Akt. Nature of the assay: Akt activity by phosphorylation on immunoblot in keratinocytes. The class given is cell-based, mouse. Particulars: sham-irradiated keratinocytes and 30 minutes post-UV. As for the experimental part: Immunoblotting. Flash frozen skin was ground with a mortar and pestle on dry ice, homogenized in lysis buffer containing 10 mM Tris (pH 7.4), 150 mM NaCl, 10% glycerol, 1% Triton X-100, 1 mM EDTA, Complete Protease Inhibitor Cocktail (Roche, Germany), 1 mM Na3V O4, 1.5 μM EGTA, and 10 μM NaF. Protein was quantified using the Coomassie Brilliant Blue G-250 protein assay (Bio-Rad, Hercules, Calif.). The evenness of loading and transfer was determined by staining with Ponceau S and by actin immunoblotting. […]
Cell culture. […] Transfection efficiency was quantified by determining the proportion of the cells that incorporated the fluorescent Cy3-conjugated siRNA or GFP one day post-transfection. […]
In general terms: A western blot detects proteins with antibodies after separation by electrophoresis.

Assay [2] relates to p38 kinase, ERK1/2 and JNK1/2. The experiment in a line: MAPK activity in keratinocytes. Particulars: after sham UV. The class given is cell-based, mouse. From the text: Inactivation of Cdc25a can occur through activation of a member of the p38 MAPK signaling pathway, which is also activated by Erbb2, but this regulation of Cdc25a remains controversial (24). […] Other mechanisms for the inactivation of Cdc25a, including sequestration in the cytoplasm and phosphorylation by p38 kinase following UV exposure or osmotic shock, have been reported (25).

The next assay deals with Erbb3. The experiment in a line: UV-induced phosphorylation of Erbb3. In kind it is cell-based, mouse. From the text:
Several methods were developed to regulate Erbb2 expression and activity both in vitro and in vivo.

The structures appear in SMILES notation.

Regarding `COc1cc(/C=C(\C#N)C(N)=O)cc(CSc2nc3ccccc3s2)c1O` [AG825], the “mean PCNA expression vs vehicle-treated controls” value in assay [1] is given as “less”. Besides, in the assay on keratin 5, loricrin, the “localization or expression of early (keratin 5) or late (loricrin) markers of differentiation” value was “did not alter”. In addition, in the assay with primary keratinocytes (after UV exposure), the “time at which S-phase arrest began” value is given as 18 h. Besides, the S-phase arrest result in the assay with primary keratinocytes (after sham UV) was “caused S-phase arrest”. For the same compound, in the assay with primary keratinocytes (inhibition prior to UV exposure), the “increase in the percentage of cells in S-phase” value is given as 10%. Moreover, in the assay with Akt, the “Akt activity, measured by its phosphorylation on immunoblot” value was “reduced”. Further, the “p38 kinase, ERK1/2 and JNK1/2 activity” value in assay [2] is listed as “decrease”. Also, the “UV-induced phosphorylation of Erbb3-Tyr1289” value in the assay with Erbb3 is given as “blocked”.

The record behind these values is patent US20080119530A1, “Method for treatment and prevention of ultraviolet light induced skin pathologies” (priority 2006, published 2008).
